Data as given in patent EP1293213A1, “PREVENTIVES/REMEDIES FOR POSTOPERATIVE STRESS” (Japan Tobacco Inc., priority 2000, dated 2001).

Columns and labels:
[1] = molecular target: T1, CRF type I(CRF-I) receptor (Homo sapiens, UniProt P34998); assay: in vitro Binding Assay using membrane fraction of recombinant cell (6EF2B) expressing CRF receptor gene (SPA method); conditions: 125I-Tyr0-human/rat CRF, membrane fraction of 6EF2B cells (derived from Hela cell), read-out: IC50(nM) [experiment 1]
T1 construct: expressed in transfected cells; membrane fraction
T1 sequence (P34998 24-415): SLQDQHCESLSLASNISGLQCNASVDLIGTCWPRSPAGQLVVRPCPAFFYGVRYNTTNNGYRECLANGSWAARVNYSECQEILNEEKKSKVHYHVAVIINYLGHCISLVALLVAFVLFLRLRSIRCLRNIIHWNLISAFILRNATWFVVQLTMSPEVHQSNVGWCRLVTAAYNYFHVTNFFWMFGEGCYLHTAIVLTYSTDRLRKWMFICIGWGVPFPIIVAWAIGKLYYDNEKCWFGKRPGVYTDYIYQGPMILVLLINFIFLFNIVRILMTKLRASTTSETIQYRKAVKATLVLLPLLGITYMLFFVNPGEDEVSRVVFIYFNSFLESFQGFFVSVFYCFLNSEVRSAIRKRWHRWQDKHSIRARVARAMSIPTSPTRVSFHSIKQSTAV
Method: Experiment 1 : in vitro Binding Assay using membrane fraction of recombinant cell (6EF2B) with expression of CRF receptor gene
Preparation of membrane fraction:
Recombinant cells 6EF2B (derived from Hela cell), which express CRF type I(CRF-I) receptor gene stably, were cultivated in Eagle's MEM medium(10%FCS, 400ug/ml G418.1/100 penicillin/streptomycin). After cultivation, cells were suspended in 50mM Tris-HCl (pH7.2) solution containing 1mM EDTA and incubated at 25°C for 15 to 30 minutes. After that, every step was carried out at 4°C. Treated cells were suspended in 50mM Tris-HCl(pH7.2) containing 10% sucrose and homogenized by a Polytron(PT10-35 model). This step of homogenization was carried out at 25,000 rpm for 15 to 20 seconds and repeated twice or three times. In the course of this step the homogenates were inspected under a microscope. Homogenates were centrifuged at 600 x g for 5 minutes and the supernatant was centrifuged again at 40,000 x g for 30 minutes. The obtained pellet was resuspended in 50mM Tris-HCl(10mM MgCl2, 2mM EGTA) and the suspension was centrifuged again at 40,000 x g for 30minutes. The obtained pellet was used for further experiments as membrane fraction. The membrane fraction was diluted with 50mM Tris-HCl(10mM MgCl2, 2mM EGTA, 0.1%BSA, 100 kallikrein units/ml aprotinin, 0.1mM bacitracin, pH7.2) to have the concentration of 1mg/ml and then stored at -80°C. DC protein assay kit (produced by Bio-RAD) was used to determine the protein concentration of the membrane fraction.
Binding Assay using CRF-I receptor by means of SPA method:
Compounds to be evaluated were stored at the concentration of 10mM in DMSO. […] The assay buffer consisted of 50mM Tris-HCl (pH7.7) containing 100mM NaCl, 5mM KCl, 2mM CaCl2, 0.1% BSA, 0.1% bacitracin, 0.05% FCS and 5% horse serum. The reactions were carried out in 96-well Optiplate(Packard) in which to 50ul of the test substance solution, were added 50ul of WGA-beads & membrane fraction (50 to 100ug membrane fraction/10mg beads/ml) pre-coupled by stirring (rotating with 10rpm) at room temperature for 2 hours on the day of experiment, and 100ul of 0.4nM ^125I-Tyr^0-human/rat CRF(NEX-216, Dupont NEN), to be made up 200ul as total volume, and the mixture was incubated at 25°C for 3 hours. By the way, the step of pre-coupling was carried out by using beads solution (20mg/ml) suspended in 50mM Tris-HCl buffer solution (pH7.2) and after stirring beads were washed twice with Tris-HCl buffer and once with assay buffer by centrifugation (3000 rpm, 5 minutes). In order to measure total binding and non-specific binding activity, assay buffer solution and 1uM(final conc.) cold human /rat CRF(C-3042; SIGMA) solution were used respectively in place of test substance solution. After incubation, the mixture was centrifuged at 23 °C, 2,500 rpm for 5 minutes and the scintillation was counted with Top Count (Packard). An influence of color quench was corrected by standard curve made by using tartrazine as a quencher. Evaluation of samples was carried out several times.

[2] = system: adrenocorticotropic hormone(ACTH); assay: Experiment 2: Model of surgical stress in mouse (inhibitory action of rise in releasing of ACTH); type: in vivo; conditions: ddY male mice, intravenous, surgical stress (abdominal incision, bowel draped externally)
Method: Experiment 2: Model of surgical stress in mouse (Inhibitory action of rise in releasing of adrenocorticotropic hormone(ACTH))
(§1) ddY male mice(SLC, 7 to 8 weeks of age: weight 34 to 42g)were used for experiments. Mice were housed before use under controlled lighting condition (12hours light and 12hours dark cycle(lights on from 8:00 to 20:00) at 23±3 °C and 55±15% humidity, and maintained with basal diet and water ad labium. On the experimental day, mice were moved to experimental room and habituated before experiment for more than 1 hour. On the day before experiment, mice were previously handled (by being fastened up for 10 to 15 seconds like the case of i.p. injections) to habituate to the stress caused by handling.
Medicine and administration:
Test compound to be evaluated was dissolved in and diluted with physiological saline(Otsuka), 5% mannitol or 0.1N NaHCO3/saline. Then the test sample solution was given into veins of mice at a dose of 10ml/Kg body weight. The same solvent alone mentioned above was given into veins of control mice group at a dose of 10ml/Kg weight.
Mice were anesthetized by injection of pentobarbital Na (2.5mg/mouse i.p.) and after 15 minutes the solvent alone or the solution containing test sample to be evaluated were intravenously injected on the tails of mice at a dose of 10ml/ Kg weight of mouse. After more 10 minutes a midline incision was made in the abdomen and in two minutes bowel was draped externally. Then 2.5 minutes after incision 0.6ml of blood samples were collected from main vein abdominalis for 1 minute gradually by using prechilled syringes(needle size 25G), which were wetted with 100mM EDTA solution. Control mice not subjected to surgical stress were decapitated and blood samples were collected at 13 to 14 minutes after medication of solvent alone and to them added 20ul of 100mM EDTA. Blood samples collected were put into siliconized tubes and centrifuged at 10,000rpm and 4°C for 5 minutes. The concentration of ACTH in supernatant was determined by IRMA method using Allegro ACTH kit (Nihon Medi+Physics Co.,Ltd.). […]

corticosterone(CORT) = assay: Experiment 3: Model of surgical stress in mouse (inhibitory action of rise in releasing of CORT); type: in vivo; conditions: ddY male mice, intravenous, blood 30 minutes after incision
Method: Experiment 3: Model of surgical stress in mouse (Inhibitory action of rise in releasing of corticosterone(CORT))
as §1, with “7” for “7 to 8”, “35” for “34”, “41g)were used.” for “42g)were used for experiments.”, “humidity 55±15%,” for “55±15% humidity,”, “day, after mice were weighted, diet was removed from mice just before experiments to eliminate the effects of food intake on experiments. Then,” for “day,”, “handling. Mice were divided into groups according to their weights on the experimental day.” for “handling.”
Medicine applied and method of administration: […]
Mice were anesthetized by injections of pentobarbital Na (2.5mg/mouse i.p.) and after 20 minutes the solvent alone or the solution containing test sample to be evaluated were intravenously injected into the tail veins of mice at a dose of 10ml/Kg weight. […]
The concentration of CORT was determined by using Corticosterone Double Antibody (RIA measurement kit of CORT; ICN Pharmaceuticals, Inc.). […]

Structure (SMILES): CCc1cc(S(=O)(=O)N(CC)CC)cc(NC(=O)c2cc(Cl)c([O-])c(Cl)c2)c1OC.[K+] [Example 7, potassium 2,6-dichloro-4-(N-(3-ethyl-5-diethylsulfamoyl-2-methoxyphenyl)carbamoyl)phenoxide]
- IC50 [1]: 263 nM
- Inhibitory action on ACTH release (mg/kg) [experiment 2] [2]: 10 to 30 mg/kg
- Inhibitory action on CORT release (mg/kg) [experiment 3] (corticosterone(CORT)): 10 to 30 mg/kg
